Reference: patent US20070225334A1, “Methods for treating cognitive and other disorders” (Wyeth, priority 2006, published 2007)

How the values were obtained:
[1] = system: extracellular glutamate levels in the rat mPFC; assay: In vivo microdialysis, extracellular glutamate in mPFC; design: species or system Sprague-Dawley rat; details: 1.7 mg/kg s.c., acute, F(1,15)=4.76, P=0.0454 vs vehicle
Experimental: (§1) Animals: Adult male Sprague-Dawley rats (Charles River, Wilmington, Mass.) weighing 280-350 g at the time of surgery were used for all microdialysis experiments. Adult male Long-Evans rats (Charles River, Wilmington, Mass.) weighing 180-220 g were used for NOR studies. Rats were housed individually for recognition memory studies. All animals had free access to food and water and were group housed in the AAALAC-accredited facility that was maintained on a 12 h light dark cycle (lights on at 0600 h) for at least 1 week prior to surgery or behavioral testing. All in vivo studies were performed in accordance to the ‘Guide for the Care and Use of Laboratory Animals’ as adopted and promulgated by the National Institutes of Health (Pub. 85-23, 1985).
Stereotaxic Surgery Following induction of anesthesia with 3% halothane (Fluothane; Zeneca, Cheshire, UK), animals were secured in a stereotaxic frame with ear and incisor bars (David Kopf, Tujunga, Calif.). Anesthesia was maintained by continuous administration of halothane (1-2%) while a microdialysis guide cannula (CMA/12, CMA Microdialysis, Stockholm, Sweden) was implanted above the dorsal hippocampus (AP: −4.3 mm ML: −2.6 mm DV: −2.1 mm) or the medial prefrontal cortex (AP: 3.2 mm ML: −0.6 mm DV: −3.8 mm). […]
Dialysate (10 μL) was collected and analyzed for extracellular glutamate concentrations. […]

[2] = system: schedule-induced polydipsia; assay: Schedule-induced polydipsia model of obsessive-compulsive disorder (adjunctive drinking); assay type: in vivo, Sprague-Dawley rat; details: for reduction in adjunctive drinking behavior: relative to vehicle
Text: In this model, a food pellet is delivered once per minute for a two-hour period. A water bottle is available in the test chamber. […] This excessive manifestation of a normal behavior (drinking) provides face validity to the model. […] Most importantly, clinically effective drugs for the treatment of obsessive-compulsive disorder decrease adjunctive drinking.
Male Sprague-Dawley rats weighing 300-400 grams were individually housed in an AALAC-accredited facility that was maintained on a 12-h light dark cycle (lights on at 0600 h) with freely available water. All in vivo studies were performed in accordance to the Guide for the Care and Use of Laboratory Animals as adopted and promulgated by the National Institutes of Health (Pub. 85-23, 1985). Rats were maintained at approximately 85% of their free-feeding body weights by food presented during the session and by post-session feeding.
Procedure Experimental sessions were conducted in a standard operant conditioning chamber placed inside a ventilated sound-attenuating shell that was equipped with white noise to mask extraneous sounds (Med Associates, Georgia, Vt.). A food trough was on the front panel of the chamber and a water bottle was mounted to the side panel. Experimental sessions were 120 minutes in duration and were conducted five days per week (Monday through Friday). Test sessions occurred generally on Tuesdays and Fridays, with the remaining days serving as control days. For each session, one food pellet (Bioserv, 45 mg precision dustless pellet) was dispensed into the food trough each minute for the duration of the session, for a total of 120 pellets being delivered. This schedule of food presentation elicits an abnormal adjunctive drinking behavior in rats such that they consume and exaggerated volume of water, approximately 5-10 fold larger than under normal conditions. Compound 1 or vehicle was administered immediately prior to the start of the experimental session. Each dose of Compound 1 was tested on a separate day, with the appropriate control sessions being conducted prior to each test. At the end of the test session, the volume of water and the number of food pellets that each rat consumed were measured.
(§2) Water consumption was calculated and expressed as percent (%) of vehicle control intake. Results were analyzed using a one-way ANOVA with least significant difference (LSD) post-hoc test. […] Where appropriate, ED50 values (dose that decreases adjunctive water intake to 50% of vehicle values) were calculated using a logistic dose response analysis.

[3] = target: T1, 5-HT2C receptor (Homo sapiens, UniProt P28335); assay: 5-HT2C receptor affinity; assay type: binding
T1 sequence (P28335 33-458): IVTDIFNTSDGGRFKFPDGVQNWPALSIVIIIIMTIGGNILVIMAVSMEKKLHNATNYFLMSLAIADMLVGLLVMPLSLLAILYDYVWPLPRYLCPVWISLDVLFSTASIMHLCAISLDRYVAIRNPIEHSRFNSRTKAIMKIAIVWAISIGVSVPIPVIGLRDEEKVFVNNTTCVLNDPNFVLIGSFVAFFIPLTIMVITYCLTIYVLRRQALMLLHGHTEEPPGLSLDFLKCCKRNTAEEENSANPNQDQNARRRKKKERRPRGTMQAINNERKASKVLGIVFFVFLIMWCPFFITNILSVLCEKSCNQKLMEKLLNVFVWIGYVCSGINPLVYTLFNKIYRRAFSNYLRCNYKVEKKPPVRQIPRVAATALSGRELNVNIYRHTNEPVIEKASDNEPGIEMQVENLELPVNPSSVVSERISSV

[4] = system: normal eating and drinking behavior; assay: Modified procedure for normal feeding and drinking behavior (120 pellets at session start); assay type: in vivo, Sprague-Dawley rat; details: 1 mg/kg
Experimental: In order to determine if Compound 1 would affect normal eating and drinking behavior, Compound 1 or vehicle was tested under modified conditions. Under these modified conditions, 120 food pellets were placed into the food trough at the beginning of the session and no further food pellets were dispensed. At the end of the test session, the volume of water and the number of food pellets consumed by each rat were measured as described earlier.
as §2

[5] = target: T1, 5-HT2C receptor; assay: 5-HT2C receptor agonist function; assay type: biochemical
[6] = system: acetylcholine in medial prefrontal cortex; assay: In vivo microdialysis, acetylcholine in medial prefrontal cortex; design: species or system Sprague-Dawley rat; details: 1.7 mg/kg s.c.
Experimental: as §1, with “1985). […]” for “1985).”
Analysis of Acetylcholine Dialysate levels of acetylcholine were determined using LC/MS/MS. […]
Acetylcholine data were quantified using peak area against an internal standard and acquired using Masslynx software (Micromass, Beverly, Mass., USA). The mean of the concentration of baseline samples was calculated and denoted as 0%. All sample values were expressed as a percent change from this pre-injection mean baseline value (% change from baseline). Neurochemical data, excluding pre-injection values, were analyzed by a two-way analysis of variance (ANOVA) with repeated measures (time). […]

Ki [3]: 0.37 nM | EC50 [5]: 0.4 nM | agonist character at the 5-HT2C receptor [5]: potent full agonist
Structure (SMILES): NC[C@H]1Cc2cc(F)cc(-c3c(Cl)cccc3Cl)c2O1 (stereo in doubt) [Compound 1, (7-(2,6-dichlorophenyl)-5-fluoro-2,3-dihydrobenzofuran-2-yl)methanamine]
extracellular glutamate levels [1]: 132% | reduction in adjunctive drinking behavior ([2]; 0.3 mg/kg i.p., p=0.003): 45% | rats not eating all food pellets presented ([2]; 1 mg/kg i.p., schedule-induced polydipsia session): one of the six rats did not eat all of the food pellets presented | reduction in adjunctive drinking behavior ([2]; 1 mg/kg i.p., p<0.0001): 81% | effect on adjunctive drinking behavior ([2]; 0.1-1 mg/kg, i.p., acute, F(3,20)=16.91, p<0.0001): dose-dependent decrease | ED50 ([2]; Rattus norvegicus, ip, 95% CI: 0.22-0.57 mg/kg, read-out: ED50 (dose that decreases adjunctive water intake to 50% of vehicle values)): 0.36 mg/kg | decrease in water consumption relative to vehicle controls ([4]; modified procedure (normal drinking)): 26% | rats failing to eat all food pellets presented ([4]; modified procedure (normal feeding)): two of the six rats tested failed to eat all of the food pellets presented | maximal increase in acetylcholine with respect to baseline [6]: 48%
